Measured values: US9809585B2, “Fluorinated 2-arylbenzo heterocyclic compound with high affinity to Aβ 946; plaques and containing chiral side chain substituent, and preparation method and usage thereof” (BEIJING ZHIBO BIO-MEDICAL TECHNOLOGY CO.,LTD, priority 2014, dated 2017)

Columns and labels:
protein polymer Aβ1-42 = molecular target: T1, protein polymer Aβ1-42 (Homo sapiens, UniProt P05067); assay: Competitive binding experiment (Ki assay) against [125I]IMPY; conditions: read-out: Ki (inhibition constant)
T1 construct: A receptor Aβ1-42 protein is prepared by an established method
Method: Competitive binding experiment (Ki assay): Put a protein polymer Aβ1-42 of a certain concentration and a radioactive ligand [^125I] […] (5) A glass fiber filter is soaked in a PBS solution containing 0.1% (volume fraction) of polyethyleneimine for 0.5 h. (6) Add 100 μL of a solution of a compound to be tested and of different concentrations, 100 μL of the [^125I] […] Seal the tub with parafilm and swirl it. (7) Shake the tube in a water bath constantly at 37° C. and maintain the incubation for 2 h. (8) Collect the reaction solution with a multi-phase cell collector. Rinse the collected solution with the PBS for three times, 3 mL for each rinse. (9) Count with a γ counter. (10) Process the data.

[1] = In-vivo biodistribution experiment on normal mice; parameters: species or system mice (ICR, male); conditions: for Bones radioactivity: tail vein injection
Method: The in-vivo pharmacokinetic properties of mice have been studied with the in-vivo biodistribution experiment, especially the absorption by the primitive brain and the removal from the brain.
Inject 5-10 μCi of a labeled compound (100 μL of a physiological saline solution containing 5% of ethanol) into normal mice (ICR, male, 20-22 g) (n=5) by tail vein injection. The mice are decapitated respectively 2 minutes, 10 minutes, 30 minutes and 60 minutes after the injection. Dissect the mice and take out the relevant organs. Measure the moisture content and the radioactivity amount. The measurement values represent the percentage of the radioactivity amount in an organ (% ID/organ) and the percentage of the radioactivity amount in the organ of one gram (% ID/g).

T1 sequence (P05067 672-713 limits assumed): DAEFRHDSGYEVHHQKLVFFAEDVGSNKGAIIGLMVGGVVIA

CNc1ccc(-c2nc3cc(OC[C@@H](O)CF)ccc3o2)cn1 [Compound 30r]
Ki (protein polymer Aβ1-42): 187 ± 39 nM

CNc1ccc(-c2nc3ccc(OC[C@H](O)CF)cc3o2)cc1 [Compound 18s]
Ki (protein polymer Aβ1-42): 103 ± 18.6 nM

CN(C)c1ccc(-c2nc3cc(OC[C@@H](O)CF)ccc3o2)cn1 [Compound 31r]
Ki (protein polymer Aβ1-42): 27.2 ± 6.3 nM

CN(C)c1ccc(-c2nc3cc(OC[C@H](O)C[18F])ccc3o2)cc1 [Compound [^18F]29s]
removal from the brain [1]: quickly removed from the brain of normal mice
ratio of the absorption in 2 minutes to that in 60 minutes (brain) ([1]; brain): 27.8
Bones radioactivity ([1]; 2 min.): 2.06 ± 0.45 % ID/g
Bones radioactivity ([1]; 10 min): 0.99 ± 0.35 % ID/g
Bones radioactivity ([1]; 30 min): 0.85 ± 0.30 % ID/g
Bones radioactivity ([1]; 1 h): 1.13 ± 0.28 % ID/g

CN(C)c1ccc(-c2nc3ccc(OC[C@H](O)C[18F])cc3s2)cc1 [Compound [^18F]15s]
Bones radioactivity ([1]; 2 min.): 2.31 ± 0.71 % ID/g
Bones radioactivity ([1]; 10 min): 1.82 ± 0.39 % ID/g
Bones radioactivity ([1]; 30 min): 1.45 ± 0.48 % ID/g
Bones radioactivity ([1]; 1 h): 1.08 ± 0.38 % ID/g

CN(C)c1ccc(-c2nc3ccc(OC[C@@H](O)CF)cc3o2)cc1 [Compound 19r]
Ki (protein polymer Aβ1-42): 10.8 ± 2.6 nM

CNc1ccc(-c2nc3ccc(OC[C@@H](O)CF)cc3s2)cn1 [Compound 16r]
Ki (protein polymer Aβ1-42): 9.9 ± 2.8 nM

CNc1ccc(-c2nc3cc(OC[C@H](O)C[18F])ccc3o2)cc1 [Compound [^18F]28s]
Bones radioactivity ([1]; 2 min.): 1.63 ± 0.44 % ID/g
Bones radioactivity ([1]; 10 min): 0.77 ± 0.11 % ID/g
Bones radioactivity ([1]; 30 min): 0.52 ± 0.16 % ID/g
Bones radioactivity ([1]; 1 h): 0.74 ± 0.13 % ID/g

CN(C)c1ccc(-c2nc3ccc(OC[C@H](O)CF)cc3s2)cn1 [Compound 17s]
Ki (protein polymer Aβ1-42): 27.2 ± 7.1 nM

CN(C)c1ccc(-c2nc3ccc(OC[C@H](O)CF)cc3s2)cc1 [Compound 15s]
Ki (protein polymer Aβ1-42): 3.7 ± 1.1 nM

CN(C)c1ccc(-c2nc3cc(OC[C@@H](O)C[18F])ccc3o2)cc1 [Compound [^18F]29r]
Bones radioactivity ([1]; 2 min.): 2.12 ± 0.60 % ID/g
Bones radioactivity ([1]; 10 min): 1.24 ± 0.40 % ID/g
Bones radioactivity ([1]; 30 min): 1.36 ± 0.41 % ID/g
Bones radioactivity ([1]; 1 h): 1.93 ± 0.77 % ID/g

CNc1ccc(-c2nc3cc(OC[C@@H](O)C[18F])ccc3o2)cc1 [Compound [^18F]28r]
Bones radioactivity ([1]; 2 min.): 1.41 ± 0.29 % ID/g
Bones radioactivity ([1]; 10 min): 1.79 ± 0.21 % ID/g
Bones radioactivity ([1]; 30 min): 1.19 ± 0.15 % ID/g
Bones radioactivity ([1]; 1 h): 3.05 ± 0.86 % ID/g

CN(C)c1ccc(-c2nc3ccc(OC[C@@H](O)CF)cc3s2)cc1 [Compound 15r]
Ki (protein polymer Aβ1-42): 3.2 ± 1.1 nM

CNc1ccc(-c2nc3ccc(OC[C@H](O)CF)cc3s2)cc1 [Compound 14s]
Ki (protein polymer Aβ1-42): 26 ± 6.5 nM

CN(C)c1ccc(-c2nc3cc(OC[C@@H](O)CF)ccc3o2)cc1 [Compound 29r]
Ki (protein polymer Aβ1-42): 7.6 ± 2.8 nM

CN(C)c1ccc(-c2nc3cc(OC[C@H](O)CF)ccc3o2)cc1 [Compound 29s]
Ki (protein polymer Aβ1-42): 15.5 ± 3.2 nM

CNc1ccc(-c2nc3ccc(OC[C@H](O)CF)cc3s2)cn1 [Compound 16s]
Ki (protein polymer Aβ1-42): 45.4 ± 11.8 nM

CNc1ccc(-c2nc3ccc(OC[C@@H](O)CF)cc3s2)cc1 [Compound 14r]
Ki (protein polymer Aβ1-42): 27.2 ± 2.9 nM

CNc1ccc(-c2nc3cc(OC[C@H](O)CF)ccc3o2)cc1 [Compound 28s]
Ki (protein polymer Aβ1-42): 67.3 ± 5.5 nM

CNc1ccc(-c2nc3ccc(OC[C@@H](O)CF)cc3o2)cc1 [Compound 18r]
Ki (protein polymer Aβ1-42): 129 ± 40.2 nM

CN(C)c1ccc(-c2nc3ccc(OC[C@@H](O)CF)cc3s2)cn1 [Compound 17r]
Ki (protein polymer Aβ1-42): 11.1 ± 5.4 nM

CNc1ccc(-c2nc3cc(OC[C@@H](O)CF)ccc3o2)cc1 [Compound 28r]
Ki (protein polymer Aβ1-42): 85.3 ± 5.2 nM

CN(C)c1ccc(-c2nc3cc(OC[C@H](O)CF)ccc3o2)cn1 [Compound 31s]
Ki (protein polymer Aβ1-42): 57.4 ± 7.6 nM

CN(C)c1ccc(-c2nc3ccc(OC[C@H](O)CF)cc3o2)cc1 [Compound 19s]
Ki (protein polymer Aβ1-42): 11 ± 1.5 nM

CNc1ccc(-c2nc3cc(OC[C@H](O)CF)ccc3o2)cn1 [Compound 30s]
Ki (protein polymer Aβ1-42): 196 ± 49.1 nM

CN(C)c1ccc(-c2nc3ccc(OC[C@@H](O)C[18F])cc3s2)cc1 [Compound [^18F]15r]
Bones radioactivity ([1]; 2 min.): 2.43 ± 0.53 % ID/g
Bones radioactivity ([1]; 10 min): 2.31 ± 0.26 % ID/g
Bones radioactivity ([1]; 30 min): 1.42 ± 0.27 % ID/g
Bones radioactivity ([1]; 1 h): 1.12 ± 0.59 % ID/g
